From US20100041089A1, “IMPROVED METHOD FOR DETECTING CHEMICAL […]” (priority 2006, published 2010)

Tested on: yeast genes (expressed mRNA)
Assay: DNA chip measurement of expressed mRNA of yeast genes after culture with a toxic chemical substance
Assay type: cell-based, Saccharomyces cerevisiae S288C
Procedure, shortened: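 Each expression value is the mRNA level in chemical-treated yeast divided by that in untreated yeast, from Cy3/Cy5 fluorescence on a whole-genome chip. Log-phase S288C cells in YPD at 25° C had received a sublethal, growth-inhibiting dose for two hours. Intensity denotes control expression relative to the all-gene mean.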

CCCCCCCCCCCCOS(=O)(=O)[O-].[Na+] [(18), Sodium lauryl sulfate]
The level of expressed mRNA in the presence of chemical substance/The level of expressed mRNA in the absence of chemical substance (yeast gene YJR054W, cultured two hours with substance): 0.9
The level of expressed mRNA in the presence of chemical substance/The level of expressed mRNA in the absence of chemical substance (yeast gene YKL034W, cultured two hours with substance): 1.2
The level of expressed mRNA in the presence of chemical substance/The level of expressed mRNA in the absence of chemical substance (yeast gene YKL071W, cultured two hours with substance): 0.9
The level of expressed mRNA in the presence of chemical substance/The level of expressed mRNA in the absence of chemical substance (yeast gene YKL086W, cultured two hours with substance): 1.0
The level of expressed mRNA in the presence of chemical substance/The level of expressed mRNA in the absence of chemical substance (yeast gene YKL151C, cultured two hours with substance): 1.8
The level of expressed mRNA in the presence of chemical substance/The level of expressed mRNA in the absence of chemical substance (yeast gene YKL153W, cultured two hours with substance): 1.3
The level of expressed mRNA in the presence of chemical substance/The level of expressed mRNA in the absence of chemical substance (yeast gene YKL195W, cultured two hours with substance): 1.6
The level of expressed mRNA in the presence of chemical substance/The level of expressed mRNA in the absence of chemical substance (yeast gene YKR049C, cultured two hours with substance): 3.3
The level of expressed mRNA in the presence of chemical substance/The level of expressed mRNA in the absence of chemical substance (yeast gene YKR091W, cultured two hours with substance): 1.3
The level of expressed mRNA in the presence of chemical substance/The level of expressed mRNA in the absence of chemical substance (yeast gene YLL056C, cultured two hours with substance): 2.5
The level of expressed mRNA in the presence of chemical substance/The level of expressed mRNA in the absence of chemical substance (yeast gene YLR008C, cultured two hours with substance): 4.9
The level of expressed mRNA in the presence of chemical substance/The level of expressed mRNA in the absence of chemical substance (yeast gene YLR031W, cultured two hours with substance): 1.2
The level of expressed mRNA in the presence of chemical substance/The level of expressed mRNA in the absence of chemical substance (yeast gene YLR046C (detoxification protein gene)): 5.4
The level of expressed mRNA in the presence of chemical substance/The level of expressed mRNA in the absence of chemical substance (yeast gene YLR054C, cultured two hours with substance): 1.1
The level of expressed mRNA in the presence of chemical substance/The level of expressed mRNA in the absence of chemical substance (yeast gene YLR149C, cultured two hours with substance): 3.0
The level of expressed mRNA in the presence of chemical substance/The level of expressed mRNA in the absence of chemical substance (yeast gene YLR152C, cultured two hours with substance): 1.8
The level of expressed mRNA in the presence of chemical substance/The level of expressed mRNA in the absence of chemical substance (yeast gene YLR194C, cultured two hours with substance): 0.9
The level of expressed mRNA in the presence of chemical substance/The level of expressed mRNA in the absence of chemical substance (yeast gene YLR324W, cultured two hours with substance): 1.2
The level of expressed mRNA in the presence of chemical substance/The level of expressed mRNA in the absence of chemical substance (yeast gene YLR327C): 5.3
The level of expressed mRNA in the presence of chemical substance/The level of expressed mRNA in the absence of chemical substance (yeast gene YLR346C, cultured two hours with substance): 7.8
The level of expressed mRNA in the presence of chemical substance/The level of expressed mRNA in the absence of chemical substance (yeast gene YLR350W, cultured two hours with substance): 1.1
The level of expressed mRNA in the presence of chemical substance/The level of expressed mRNA in the absence of chemical substance (yeast gene YLR387C, cultured two hours with substance): 1.4
The level of expressed mRNA in the presence of chemical substance/The level of expressed mRNA in the absence of chemical substance (yeast gene YLR460C, cultured two hours with substance): 1.1
The level of expressed mRNA in the presence of chemical substance/The level of expressed mRNA in the absence of chemical substance (yeast gene YML117W, cultured two hours with substance): 1.3
The level of expressed mRNA in the presence of chemical substance/The level of expressed mRNA in the absence of chemical substance (yeast gene YML128C, cultured two hours with substance): 5.5
The level of expressed mRNA in the presence of chemical substance/The level of expressed mRNA in the absence of chemical substance (yeast gene YMR009W, cultured two hours with substance): 2.5
The level of expressed mRNA in the presence of chemical substance/The level of expressed mRNA in the absence of chemical substance (yeast gene YMR067C, cultured two hours with substance): 1.0
The level of expressed mRNA in the presence of chemical substance/The level of expressed mRNA in the absence of chemical substance (yeast gene YMR090W, cultured two hours with substance): 2.8
The level of expressed mRNA in the presence of chemical substance/The level of expressed mRNA in the absence of chemical substance (yeast gene YMR095C, cultured two hours with substance): 1.0
The level of expressed mRNA in the presence of chemical substance/The level of expressed mRNA in the absence of chemical substance (yeast gene YMR097C, cultured two hours with substance): 1.8
The level of expressed mRNA in the presence of chemical substance/The level of expressed mRNA in the absence of chemical substance (yeast gene YMR102C, cultured two hours with substance): 2.8
The level of expressed mRNA in the presence of chemical substance/The level of expressed mRNA in the absence of chemical substance (yeast gene YMR107W, cultured two hours with substance): 8.1
The level of expressed mRNA in the presence of chemical substance/The level of expressed mRNA in the absence of chemical substance (yeast gene YMR180C, cultured two hours with substance): 1.7
The level of expressed mRNA in the presence of chemical substance/The level of expressed mRNA in the absence of chemical substance (yeast gene YMR184W, cultured two hours with substance): 2.0
The level of expressed mRNA in the presence of chemical substance/The level of expressed mRNA in the absence of chemical substance (yeast gene YMR191W, cultured two hours with substance): 2.1
The level of expressed mRNA in the presence of chemical substance/The level of expressed mRNA in the absence of chemical substance (yeast gene YMR295C, cultured two hours with substance): 3.4
The level of expressed mRNA in the presence of chemical substance/The level of expressed mRNA in the absence of chemical substance (yeast gene YMR316W, cultured two hours with substance): 6.4
The level of expressed mRNA in the presence of chemical substance/The level of expressed mRNA in the absence of chemical substance (yeast gene YNL044W, cultured two hours with substance): 3.4
The level of expressed mRNA in the presence of chemical substance/The level of expressed mRNA in the absence of chemical substance (yeast gene YNL074C, cultured two hours with substance): 1.3
The level of expressed mRNA in the presence of chemical substance/The level of expressed mRNA in the absence of chemical substance (yeast gene YNL092W, cultured two hours with substance): 1.6
The level of expressed mRNA in the presence of chemical substance/The level of expressed mRNA in the absence of chemical substance (yeast gene YNL115C, cultured two hours with substance): 2.6
The level of expressed mRNA in the presence of chemical substance/The level of expressed mRNA in the absence of chemical substance (yeast gene YNL156C, cultured two hours with substance): 1.9
The level of expressed mRNA in the presence of chemical substance/The level of expressed mRNA in the absence of chemical substance (yeast gene YNL190W, cultured two hours with substance): 0.8
The level of expressed mRNA in the presence of chemical substance/The level of expressed mRNA in the absence of chemical substance (yeast gene YNL208W, cultured two hours with substance): 1.0
The level of expressed mRNA in the presence of chemical substance/The level of expressed mRNA in the absence of chemical substance (yeast gene YNL211C, cultured two hours with substance): 6.8
The level of expressed mRNA in the presence of chemical substance/The level of expressed mRNA in the absence of chemical substance (yeast gene YNL234W, cultured two hours with substance): 1.0
The level of expressed mRNA in the presence of chemical substance/The level of expressed mRNA in the absence of chemical substance (yeast gene YNL281W, cultured two hours with substance): 0.9
The level of expressed mRNA in the presence of chemical substance/The level of expressed mRNA in the absence of chemical substance (yeast gene YNL300W, cultured two hours with substance): 0.8
The level of expressed mRNA in the presence of chemical substance/The level of expressed mRNA in the absence of chemical substance (yeast gene YNL305C, cultured two hours with substance): 1.6
The level of expressed mRNA in the presence of chemical substance/The level of expressed mRNA in the absence of chemical substance (yeast gene YNR064C, cultured two hours with substance): 1.9
The level of expressed mRNA in the presence of chemical substance/The level of expressed mRNA in the absence of chemical substance (yeast gene YNR068C, cultured two hours with substance): 1.0
The level of expressed mRNA in the presence of chemical substance/The level of expressed mRNA in the absence of chemical substance (yeast gene YOL032W, cultured two hours with substance): 1.8
The level of expressed mRNA in the presence of chemical substance/The level of expressed mRNA in the absence of chemical substance (yeast gene YOL036W, cultured two hours with substance): 0.9
The level of expressed mRNA in the presence of chemical substance/The level of expressed mRNA in the absence of chemical substance (yeast gene YOL047C, cultured two hours with substance): 1.0
The level of expressed mRNA in the presence of chemical substance/The level of expressed mRNA in the absence of chemical substance (yeast gene YOL071W, cultured two hours with substance): 2.0
The level of expressed mRNA in the presence of chemical substance/The level of expressed mRNA in the absence of chemical substance (yeast gene YOL073C, cultured two hours with the chemical substance): 1.2
The level of expressed mRNA in the presence of chemical substance/The level of expressed mRNA in the absence of chemical substance (yeast gene YOL082W, cultured two hours with substance): 2.5
The level of expressed mRNA in the presence of chemical substance/The level of expressed mRNA in the absence of chemical substance (yeast gene YOL083W, cultured two hours with substance): 3.2
The level of expressed mRNA in the presence of chemical substance/The level of expressed mRNA in the absence of chemical substance (yeast gene YOL117W, cultured two hours with substance): 1.4
The level of expressed mRNA in the presence of chemical substance/The level of expressed mRNA in the absence of chemical substance (yeast gene YOL131W, cultured two hours with substance): 0.9
The level of expressed mRNA in the presence of chemical substance/The level of expressed mRNA in the absence of chemical substance (yeast gene YOL150C, cultured two hours with substance): 2.2
The level of expressed mRNA in the presence of chemical substance/The level of expressed mRNA in the absence of chemical substance (yeast gene YOL162W, cultured two hours with substance): 0.9
The level of expressed mRNA in the presence of chemical substance/The level of expressed mRNA in the absence of chemical substance (yeast gene YOR019W, cultured two hours with substance): 2.8
The level of expressed mRNA in the presence of chemical substance/The level of expressed mRNA in the absence of chemical substance (yeast gene YOR161C, cultured two hours with the chemical substance): 1.2
The level of expressed mRNA in the presence of chemical substance/The level of expressed mRNA in the absence of chemical substance (yeast gene YOR173W, cultured two hours with substance): 3.8
The level of expressed mRNA in the presence of chemical substance/The level of expressed mRNA in the absence of chemical substance (yeast gene YOR197W, cultured two hours with substance): 1.5
The level of expressed mRNA in the presence of chemical substance/The level of expressed mRNA in the absence of chemical substance (yeast gene YOR248W, cultured two hours with substance): 0.8
The level of expressed mRNA in the presence of chemical substance/The level of expressed mRNA in the absence of chemical substance (yeast gene YOR289W, cultured two hours with substance): 3.9
The level of expressed mRNA in the presence of chemical substance/The level of expressed mRNA in the absence of chemical substance (yeast gene YPL052W, cultured two hours with substance): 1.5
The level of expressed mRNA in the presence of chemical substance/The level of expressed mRNA in the absence of chemical substance (yeast gene YPL087W, cultured two hours with substance): 2.7
The level of expressed mRNA in the presence of chemical substance/The level of expressed mRNA in the absence of chemical substance (yeast gene YPL196W, cultured two hours with substance): 2.3
The level of expressed mRNA in the presence of chemical substance/The level of expressed mRNA in the absence of chemical substance (yeast gene YPL206C, cultured two hours with substance): 1.9
The level of expressed mRNA in the presence of chemical substance/The level of expressed mRNA in the absence of chemical substance (yeast gene YPL222W, cultured two hours with substance): 0.9
The level of expressed mRNA in the presence of chemical substance/The level of expressed mRNA in the absence of chemical substance (yeast gene YPL272C, cultured two hours with the chemical substance): 1.2
The level of expressed mRNA in the presence of chemical substance/The level of expressed mRNA in the absence of chemical substance (yeast gene YPR023C, cultured two hours with substance): 1.1
The level of expressed mRNA in the presence of chemical substance/The level of expressed mRNA in the absence of chemical substance (yeast gene YPR079W, cultured two hours with substance): 1.5
The level of expressed mRNA in the presence of chemical substance/The level of expressed mRNA in the absence of chemical substance (yeast gene YPR127W, cultured two hours with substance): 1.2
The level of expressed mRNA in the presence of chemical substance/The level of expressed mRNA in the absence of chemical substance (yeast gene YPR151C, cultured two hours with substance): 1.4
